Measurements taken from patent US20060094661A1, “NY-ESO-1 peptide analogs” (priority 2004, published 2006).
Where a SMILES comes first, the peptide text is derived from it. [ ]: non-standard residue; d: D form. Nva = CCC[C@H](N)C(=O)O

Assays:
[1] = molecular target: HLA-A*0201 (Homo sapiens, UniProt P04439, D140Y/D185E/D98H/E176V/E277Q/G131W/G231S/I119V/I121R/I166T/I218V/L300P/L318F/N151K/N90K/P208A/P217A/Q86G/Q94H/R138H/R169H/T345S); assay: ED50 (M)
Text: Table printed on a drawing sheet, Figure 27B
Head of the field: ED50 (M)

[2] = system: T cell lines specific for the native epitope (PRAME425-433); assay: Cross reactivity of PRAME425-433 analogs: IFN-γ secretion from T cell line specific for native epitope; assay type: cell-based; settings: analog peptide at approximately 0.3 μM; normalized to native peptide
Experimental: At 7 days after the last boost, the mice were sacrificed and a suspension of splenocytes prepared at 5×10^6 […] cells/ml in complete HL-1 medium. Cells were incubated with different concentrations of peptide for 48 hours in flat-bottomed 96-well plates (200 ul/well) and for an additional 24 hours with rIL-2 at 10 U/ml added to the wells. The supernatant was harvested and the concentration of IFN-gamma assessed by standard methods such as ELISA. […] The observed affinities of the analogs are reported as % binding (compared to the positive control) and ED50s. Stability of binding as half time of dissociation. Cross reactivity with the native epitope was assessed by using the analog peptides to stimulate IFG-gamma secretion from a T cell lines specific for the native epitope, essentially as described in Example 6. The data shown in FIGS. 26-28 were generated by stimulating with analog peptide at approximately 0.3 μM. […] In some cases the reported values are the average of two determinations.

EC50 [1]	Compound	IFN-γ elicited, of that of the native peptide [2]
2940 nM	CCC[C@H](NC(=O)CNC(=O)[C@@H](NC(=O)[C@H](CC(C)C)NC(=O)[C@H](Cc1c[nH]cn1)NC(=O)[C@H](CCC(N)=O)NC(=O)[C@H](CC(C)C)NC(=O)[C@H](CCC)NC(=O)[C@@H](N)CO)[C@@H](C)CC)C(=O)O [50 | Prame 425-433 (L426(Nva),L433(Nva)), S(Nva)LQHLIG(Nva)] (H-S[Nva]LQHLIG[Nva]-OH; N-terminus and C-terminus assumed)	–
688 nM	CCC[C@H](NC(=O)CNC(=O)[C@@H](NC(=O)[C@H](CC(C)C)NC(=O)[C@H](Cc1c[nH]cn1)NC(=O)[C@H](CCC(N)=O)NC(=O)[C@H](CC(C)C)NC(=O)[C@H](CCSC)NC(=O)[C@@H](N)CO)[C@@H](C)CC)C(=O)O [56 | Prame 425-433 (L426M,L433(Nva))] (H-SMLQHLIG[Nva]-OH; N-terminus and C-terminus assumed)	–
–	Lys P1 analog: PRAME425-433 analog with Lys for the Ser at the P1 position (KLLQHLIGL)	40%
